We go through three compounds from PubChem BioAssay (NCI).

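Dose response: 5 concentrations. Exposure: 48 h. Format: 96-well plates. Endpoint: linear interpolation; highest concentration if not reached. TGI: concentration producing complete growth inhibition.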

For one assay, the system named is 786-0 renal. Put plainly: inhibition of tumour cell growth, NCI panel, 48 h.
With `Cc1nc2c(sc(=S)n2-c2ccccc2)c2nc3ncccc3n12`, the TGI was > 100 µM.

`CC(CN1c2ccccc2Sc2ccccc21)N(C)C` (stereo not given) had a TGI of 27.9 µM.

With `CCCCN1C(=O)CC2[C@@H]3CCc4cc(OC(C)=O)ccc4C3CC[C@]2(C)C1=O` (stereo not given in full), the TGI was > 10 µM.

In another assay the test system is OVCAR-3 ovarian. Description: inhibition of tumour cell growth, NCI panel, 48 h.
Take `Cc1nc2c(sc(=S)n2-c2ccccc2)c2nc3ncccc3n12`: the TGI was > 100 µM.

`CC(CN1c2ccccc2Sc2ccccc21)N(C)C` (stereo not given) yielded a TGI of 31.1 µM.

For the compound `CCCCN1C(=O)CC2[C@@H]3CCc4cc(OC(C)=O)ccc4C3CC[C@]2(C)C1=O` (stereo not given in full), the TGI was > 10 µM.

The next assay deals with SR leukemia. Description: inhibition of tumour cell growth, NCI panel, 48 h.
With `Cc1nc2c(sc(=S)n2-c2ccccc2)c2nc3ncccc3n12`, the TGI was > 100 µM.

Consider `CC(CN1c2ccccc2Sc2ccccc21)N(C)C` (stereo not given), for which the TGI came out at 40.9 µM.

On to `CCCCN1C(=O)CC2[C@@H]3CCc4cc(OC(C)=O)ccc4C3CC[C@]2(C)C1=O` (stereo not given in full), for which the TGI is > 10 µM.

A further assay has as its system HCT-15 colon. Put plainly: inhibition of tumour cell growth, NCI panel, 48 h.
Take `Cc1nc2c(sc(=S)n2-c2ccccc2)c2nc3ncccc3n12`: the TGI was > 100 µM.

Compound `CC(CN1c2ccccc2Sc2ccccc21)N(C)C` (stereo not given) registered a TGI of 35.1 µM.

For the compound `CCCCN1C(=O)CC2[C@@H]3CCc4cc(OC(C)=O)ccc4C3CC[C@]2(C)C1=O` (stereo not given in full), the TGI was > 10 µM.

The test system of another assay is MDA-MB-231 breast. Put plainly: inhibition of tumour cell growth, NCI panel, 48 h.
`Cc1nc2c(sc(=S)n2-c2ccccc2)c2nc3ncccc3n12`: the TGI was > 100 µM.

The compound `CC(CN1c2ccccc2Sc2ccccc21)N(C)C` (stereo not given) had a TGI of 32.4 µM.

Regarding `CCCCN1C(=O)CC2[C@@H]3CCc4cc(OC(C)=O)ccc4C3CC[C@]2(C)C1=O` (stereo not given in full), the TGI is > 10 µM.

Another assay concerns UO-31 renal. Description: inhibition of tumour cell growth, NCI panel, 48 h.
Turning to `Cc1nc2c(sc(=S)n2-c2ccccc2)c2nc3ncccc3n12`, the TGI is > 100 µM.

`CC(CN1c2ccccc2Sc2ccccc21)N(C)C` (stereo not given) yielded a TGI of 32.8 µM.

Regarding `CCCCN1C(=O)CC2[C@@H]3CCc4cc(OC(C)=O)ccc4C3CC[C@]2(C)C1=O` (stereo not given in full), the TGI is > 10 µM.

A further assay relates to A498 renal. Put plainly: inhibition of tumour cell growth, NCI panel, 48 h.
For the compound `Cc1nc2c(sc(=S)n2-c2ccccc2)c2nc3ncccc3n12`, the TGI is > 100 µM.

With `CC(CN1c2ccccc2Sc2ccccc21)N(C)C` (stereo not given), the TGI turned out to be 34.4 µM.

`CCCCN1C(=O)CC2[C@@H]3CCc4cc(OC(C)=O)ccc4C3CC[C@]2(C)C1=O` (stereo not given in full): the TGI was > 10 µM.

The subject of the next assay is MOLT-4 leukemia. Put plainly: inhibition of tumour cell growth, NCI panel, 48 h.
In the case of `Cc1nc2c(sc(=S)n2-c2ccccc2)c2nc3ncccc3n12`, the TGI was > 100 µM.

In the case of `CC(CN1c2ccccc2Sc2ccccc21)N(C)C` (stereo not given), the TGI came out at 40.7 µM.

As to `CCCCN1C(=O)CC2[C@@H]3CCc4cc(OC(C)=O)ccc4C3CC[C@]2(C)C1=O` (stereo not given in full), the TGI is > 10 µM.

The next assay concerns MDA-MB-435. Description: inhibition of tumour cell growth, NCI panel, 48 h.
Turning to `Cc1nc2c(sc(=S)n2-c2ccccc2)c2nc3ncccc3n12`, the TGI was > 100 µM.

As for `CC(CN1c2ccccc2Sc2ccccc21)N(C)C` (stereo not given), the TGI is 31.2 µM.

Regarding `CCCCN1C(=O)CC2[C@@H]3CCc4cc(OC(C)=O)ccc4C3CC[C@]2(C)C1=O` (stereo not given in full), the TGI is > 10 µM.

A further assay has as its system MCF7 breast. Put plainly: inhibition of tumour cell growth, NCI panel, 48 h.
`Cc1nc2c(sc(=S)n2-c2ccccc2)c2nc3ncccc3n12`: the TGI is > 100 µM.

`CC(CN1c2ccccc2Sc2ccccc21)N(C)C` (stereo not given) returned a TGI of 42.8 µM.

Take `CCCCN1C(=O)CC2[C@@H]3CCc4cc(OC(C)=O)ccc4C3CC[C@]2(C)C1=O` (stereo not given in full): the TGI is > 10 µM.
